Test results taken from PubChem BioAssay AID179 (DTP/NCI, 2004).
Activity calls are given as the source filed them.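 How the source made its calls: active means compounds giving half or more protection of infected cells from virus-caused growth loss, again on retest; inactive means the rest.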 Where a SMILES comes first, the peptide text is derived from it.

System: CEM cells HIV-1 protection, formazan growth assay
Experiment: NCI AIDS Antiviral Assay
Conditions: for IC50: measured here: growth of uninfected CEM cells
How it was run: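 Protection of CEM cells against HIV-1 measured as cell growth via soluble formazan read-out, with five concentrations tested on both infected and uninfected cells; failure to protect may reflect toxicity.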

## O=C(c1ccccc1)C1C(c2ccccc2)SC(c2ccccc2)CC1(O)c1ccccc1 (centres undefined)
  EC50: > 151 µM
  IC50: 20.9 µM

## Cn1c(=O)nc2n(-c3ccc(Cl)cc3)c(-c3ccccc3)c(-c3ccccc3)nc-2c1=O
  outcome: inactive

## N#CC(N)c1ccc(OCCCCCCCCCCOc2ccc(C(N)C#N)cc2)cc1 (centres undefined)
  EC50: > 200 µM
  IC50: 115 µM

## Cc1n(Cc2ccccc2)c2c([n+]1C)C(=O)c1ccccc1C2=O
  EC50: > 562 µM
  IC50: 0.178 µM

## CCCCN(CCCC)P(=S)(OCC)OCC
  EC50: > 200 µM
  IC50: > 200 µM

## CC1=NNC(=O)C12CC2
  outcome: inactive

## COP1(=S)OCC(C(C)(C)C)CO1 (centres undefined)
  EC50: > 57.5 µM
  IC50: > 57.5 µM

## O=c1[nH]c(=O)n(C2OC(CO)C(O)C(F)C2O)cc1F (centres undefined)
  EC50: 186 µM
  IC50: > 200 µM

## COC(=O)C1=C(C(=O)OC)P2(C)(C)OC(c3ccccc3)CN2C1(c1ccccc1)c1ccccc1 (centres undefined)
  EC50: > 36.3 µM
  IC50: 4.79 µM

## O=C(/C(=C/c1ccccc1Cl)c1ccccc1)c1ccccc1
  EC50: > 8.51 µM
  IC50: > 8.51 µM

## C#CCOC(=O)c1ccc(OC(C)=O)cc1
  EC50: > 200 µM
  IC50: 191 µM

## Clc1cc(Cl)c2nncc(N3CC3)c2c1
  outcome: inactive

## CC1CCN(Cc2cccnc2)CC1
  outcome: inactive

## Cc1cc2nnn(C3CCCO3)c2cc1C (centres undefined)
  EC50: > 200 µM
  IC50: > 200 µM

## CCOC(=O)/C(C#N)=C/c1ccccc1OC
  EC50: > 112 µM
  IC50: > 112 µM

## CC1(C)CC(=O)C2(CC(CSc3ccccc3)C(CS(=O)(=O)c3ccccc3)C2)C(=O)C1 (centres undefined)
  EC50: > 200 µM
  IC50: > 200 µM

## CO[C@]1(c2ccc([N+](=O)[O-])cc2)Oc2ccccc2C(=O)[C@@]1(Nc1ccc(C=O)cc1)OC
  EC50: > 200 µM
  IC50: 174 µM

## Cc1cc(S(=O)(=O)NC(=NCCc2ccccc2)NN)c(S)cc1Cl
  EC50: > 200 µM
  IC50: 25.7 µM

## O=C(C[n+]1ccccc1Br)c1ccc2ccccc2c1
  EC50: > 200 µM
  IC50: 9.55 µM

## COC(=O)C1=C(C=O)C2C=CC1C2 (centres undefined)
  outcome: inactive

## O=c1[nH]c(=O)n(C2OC(CO)CC2F)cc1Cl (centres undefined)
  EC50: > 186 µM
  IC50: > 186 µM

## COC[C@H](C)N=CN1CCc2ccccc2C1(Cc1ccccc1)Cc1ccccc1
  EC50: > 33.1 µM
  IC50: > 33.1 µM

## CCOC(=O)C(NC(=O)CC(C)C)(Nc1ccc(S(=O)(=O)Nc2nc(C)cc(C)n2)cc1)C(F)(F)F (centres undefined)
  EC50: > 200 µM
  IC50: > 200 µM

## CC1(C)CC23C(=O)N(c4ccccc4)C(=Nc4ccccc4)NC2=CC(C#N)=C(C#N)C3O1 (centres undefined)
  EC50: > 12 µM
  IC50: > 12 µM

## CC1C(=O)N=C2C(=CN(Cc3ccccc3)c3ccccc32)C(=O)N1C (centres undefined)
  outcome: inactive

## CCCn1c2c(c3ccccc3c1=O)C(=O)c1ccccc1-2
  EC50: > 18.2 µM
  IC50: > 18.2 µM

## Cc1c(Cl)cccc1NC(=O)CN(CC(C)C)CC(C)C
  EC50: > 200 µM
  IC50: 33.1 µM

## O=C(O)CN(CCO)CCN(CC(=O)O)CC(=O)O.[Fe+2]
  EC50: > 200 µM
  IC50: > 200 µM

## C=C(Cc1ccc(O)cc1)C(=C)Cc1ccc(O)cc1
  EC50: > 200 µM
  IC50: 69.2 µM

## CC(Br)(c1ccccc1)[P+](c1ccccc1)(c1ccccc1)c1ccccc1 (centres undefined)
  EC50: > 20 µM
  IC50: 0.871 µM

## CCOP(=O)(OCC)Oc1c(OC)c2[nH]c(C(=O)OC)cc2c2c(C(=O)O)c[nH]c12
  EC50: > 200 µM
  IC50: > 200 µM

## O=C1C2C=CC(n3[nH]c(=O)n(Cc4ccccc4)c3=O)CC2C(=O)N1c1cccc(Cl)c1 (centres undefined)
  EC50: > 398 µM
  IC50: > 398 µM

## COC(=O)N[C@@H]1C[C@H]2CC[C@]1(O[Si](C(C)C)(C(C)C)C(C)C)C(=O)C2
  EC50: > 200 µM
  IC50: 16.6 µM

## O=C1C[C@@H]2[C@@H](CCC23CC3)N1
  EC50: > 1660 µM
  IC50: > 1660 µM

## COC(=O)C1(CCCCCBr)CCCCCCCCCCC1=O (centres undefined)
  EC50: > 200 µM
  IC50: 35.5 µM

## CCCCCCCCCCCCCCCC(=O)ON1C(=S)NC(C)(c2ccccc2)C1=S (centres undefined)
  EC50: > 200 µM
  IC50: 77.6 µM

## Cc1nc(-c2cc3c(ccc4ccccc43)oc2=O)cs1
  EC50: > 100 µM
  IC50: 95.5 µM

## CC(C(=O)c1ccc(O)cc1)C1(O)C(=O)Nc2c(Cl)cc(Cl)cc21 (centres undefined)
  EC50: > 257 µM
  IC50: 112 µM

## O=S(=O)(O)c1cc(NC(=S)c2ccc3cccnc3c2O)ccc1/C=C/c1ccc(NC(=S)c2ccc3cccnc3c2O)cc1S(=O)(=O)O
  EC50: 13.8 µM
  IC50: 72.4 µM

## Clc1ccc(CSc2ccc3nncc(SCc4ccc(Cl)cc4Cl)c3c2)c(Cl)c1
  EC50: > 29.5 µM
  IC50: > 29.5 µM

## CCOC(=O)c1cc2c3c(c(C(C)=O)c(OC)c2[nH]1)N(C(=O)CC)CC3
  EC50: > 200 µM
  IC50: 16.2 µM

## COc1ccc(/C=C(\C(=O)OCC(C)C)c2ccc(OC)c(OC)c2)cc1OC
  EC50: > 200 µM
  IC50: 166 µM

## O=C(/C=C/c1cccc(Br)c1)c1cccs1
  outcome: inactive

## CC(C)CC(NC(=O)CNC(=O)C(CC(C)C)NC(=O)C(Cc1c[nH]cn1)NC(=O)C(CC(N)=O)NC(=O)C1CCCN1C(=O)C(C)NC(=O)C(Cc1ccc(O)cc1)NC(=O)C(C)NC(=O)C1CCCN1C(=O)C(CCC(=O)O)NC(=O)C(CC(=O)O)NC(=O)C(Cc1ccccc1)NC(=O)C(CC(N)=O)NC(=O)C(C)N)C(=O)O (centres undefined) (H-ANFDEPAYAPNHLGL-OH; configuration not given here)
  EC50: > 38 µM
  IC50: > 38 µM

## Cc1cn(C2CC(OP(=O)(O)OCC3CCC(n4ccc(N)nc4=O)O3)C(CO)O2)c(=O)[nH]c1=O (centres undefined)
  EC50: 0.204 µM
  IC50: 35.5 µM

## Cc1ccc(C)c(NC(=O)CCc2nc(=S)[nH][nH]2)c1
  outcome: inactive

## CC(C)OC(=O)c1cc(NC(=O)C(C)(C)C)c(F)cc1Cl
  outcome: inactive

## CS1(=O)=NC(=N)c2ccccc21 (centres undefined)
  outcome: inactive

## C/C(Cc1ccccc1)=N\NC(N)=S
  outcome: inactive

## C1CCC(N=C(NC2CCCCC2)N2CCOCC2)CC1
  EC50: > 200 µM
  IC50: 135 µM

## O=C1CCC2(CC1CC(Sc1ccccc1)Sc1ccccc1)OCCO2 (centres undefined)
  EC50: > 200 µM
  IC50: 41.7 µM

## N/C(CSCCSC/C(N)=N/O)=N\O
  EC50: > 200 µM
  IC50: > 200 µM

## C=CC[C@]12C[C@@H](C(=O)OC)N(C(=O)OC)[C@H]1N(S(=O)(=O)c1ccccc1)c1ccccc12
  EC50: > 200 µM
  IC50: 74.1 µM

## NCCCN(CCCCN(CCCN)Cc1ccc2ccccc2c1)Cc1ccc2ccccc2c1
  EC50: > 200 µM
  IC50: 1.07 µM

## c1cnc(SCc2nc3ccccc3o2)nc1
  EC50: 38 µM
  IC50: > 200 µM

## N/C(Cc1ccc(Cl)cc1)=N/O
  EC50: > 200 µM
  IC50: > 200 µM

## CN(C)CC(CO)(CN(C)C)CN(C)C
  EC50: > 200 µM
  IC50: > 200 µM

## CCN(CC)C1Oc2cc3c(cc2C(c2cc(OC)c(OC)c(OC)c2)C1C)OCO3 (centres undefined)
  EC50: > 100 µM
  IC50: 0.537 µM

## Clc1ccc(C2=Nc3ccccc3SC(c3ccc(Cl)c(Cl)c3)C2)c(Cl)c1 (centres undefined)
  EC50: > 15.8 µM
  IC50: > 15.8 µM

## Cc1ccc(S(=O)(=O)c2c(N)c3nc4ccccc4n3c3nc4ccccc4nc23)cc1
  EC50: > 4.57 µM
  IC50: > 4.57 µM

## NN1C(=O)C(CCO)S/C1=N/N=C1/SC(CCO)C(=O)N1N (centres undefined)
  EC50: > 74.1 µM
  IC50: > 74.1 µM

## COc1cccc2c(=O)c3c(n(C)c12)OC(C(C)C)C3 (centres undefined)
  EC50: > 339 µM
  IC50: 126 µM

## c1snnc1-c1cnns1
  EC50: > 200 µM
  IC50: > 200 µM

## Cc1c(O)ccc2c(O)c(NC(=O)c3ccc4c(c3)CCC(C)(C)O4)c(=O)oc12
  EC50: > 200 µM
  IC50: 83.2 µM

## O=C1c2cc(-c3ccccc3)cnc2S(=O)(=O)N1c1ccc(Br)cc1
  EC50: > 200 µM
  IC50: 16.6 µM

## CCCCCCNC(=O)Sc1ccccc1C(=O)N[C@H](C)C(N)=O
  EC50: 0.141 µM
  IC50: 107 µM

## CC(=O)OCC(OC(C)=O)C(OC(C)=O)C(/C=N/N(C(C)=O)S(=O)(=O)c1ccc(/C=C2\NC(=O)NC2=O)cc1)OC(C)=O (centres undefined)
  EC50: > 200 µM
  IC50: 105 µM

## [N-]=[N+]=CC(=O)OC(CCl)CCl
  EC50: > 200 µM
  IC50: > 200 µM

## CC1=C2CCCCCC2(O)OC1=O (centres undefined)
  EC50: > 646 µM
  IC50: > 646 µM

## COc1cccc(/C=N/[N-]C(N)=O)c1[O-].[OH3+].[Zn+2]
  EC50: > 447 µM
  IC50: 132 µM

## CCCCC1N=CNc2c1ccc1c2[nH]c2ccccc21 (centres undefined)
  EC50: > 25.7 µM
  IC50: 6.17 µM

## Cc1ccc(C(=O)/C=C/c2cccc([N+](=O)[O-])c2)cc1
  EC50: > 37.2 µM
  IC50: > 37.2 µM

## O=S(=O)(c1ccc(NCSc2nc3ccccc3s2)cc1)c1ccc(NCSc2nc3ccccc3s2)cc1
  EC50: > 12 µM
  IC50: > 12 µM

## O=C(NCc1ccccc1Cl)c1c(O)c2ccccc2[nH]c1=O
  EC50: > 200 µM
  IC50: > 200 µM

## Cc1c([N+](=O)[O-])c(=O)oc2ccc3c(=O)ccoc3c12
  EC50: > 50.1 µM
  IC50: 8.71 µM

## COc1ccc2c(c1)c1c3n2CCNN=C3CCC1
  EC50: > 74.1 µM
  IC50: > 74.1 µM

## COc1ccccc1NC(=O)C1=C(C)NC(C)=C(C(=O)Nc2ccccc2OC)C1C1=CC=COC1
  EC50: > 14.8 µM
  IC50: > 14.8 µM

## CNC(=O)O/N=C\C=N\OC(=O)NC
  outcome: inactive

## O=C(Nc1ccc(C2=NCCCN2)cc1)c1ccc(NC(=O)c2ccc(C3=NCCCN3)cc2)cc1
  EC50: > 200 µM
  IC50: 67.6 µM

## CC1(C)OC(=O)C(=C=[N-])/C1=C\[n+]1ccccc1
  EC50: > 417 µM
  IC50: > 417 µM

## Cc1ccc(-c2oc3ccccc3c(=O)c2O)cc1
  EC50: > 200 µM
  IC50: 53.7 µM

## O=C(Nc1ccccc1C(=O)NCCCO)/C(=C/c1ccccc1O)NC(=O)c1ccccc1
  EC50: > 200 µM
  IC50: > 200 µM

## NC(=O)N/N=C(\Cc1nc2ccc(Cl)cc2[nH]c1=O)C(=O)Nc1ccc(Cl)cc1Cl
  EC50: > 77.6 µM
  IC50: > 77.6 µM

## COc1ccc(OC)c2[nH]c(Sc3c([N+](=O)[O-])ncn3C)nc12
  EC50: > 21.4 µM
  IC50: 7.08 µM

## c1ccc2c(c1)cc1n2CCc2c-1[nH]c1ccccc21
  EC50: > 200 µM
  IC50: > 200 µM

## Cc1cc(C2(c3cc(C)c(O)c(Br)c3)OS(=O)(=O)c3ccccc32)cc(Br)c1O
  EC50: > 200 µM
  IC50: > 200 µM

## CC1(C)O[C@@H](CP(c2cccc3ccccc23)c2cccc3ccccc23)[C@H](CP(c2cccc3ccccc23)c2cccc3ccccc23)O1
  EC50: > 200 µM
  IC50: > 200 µM

## O=C(O)Cn1c(=O)[nH]c(=O)c2[nH]cnc21
  EC50: > 1200 µM
  IC50: > 1200 µM
